This is an account of results in patent US20060171983A1, “Use of Vitamin D receptor activators or Vitamin D analogs to treat cardiovascular disease” (priority 2003, published 2006).

The subject of data set [1] is renin mRNA expression in As4.1-hVDR cells. The data set is described as follows: Northern blot of renin mRNA expression in As4.1-hVDR cells. The format is cell-based. From the text: Using an in vitro cell culture system, the activity of paricalcitol to suppress renin gene expression was examined using previously published techniques (1,25-Dihydroxyvitamin D3 is a negative endocrine regulator of the renin-angiotensin system, J. Clin. Invest., July 2002). […] This inhibitory effect is confirmed by renin promoter-luciferase reporter assays, which examine the activity of paricalcitol to suppress renin gene transcription.
In the present study, an investigation was made of the in vitro and in vivo activity of paricalcitol, a FDA-approved low calcemic vitamin D analog, to inhibit renin biosynthesis. To this end, As4.1-hVDR cells, a JG cell-like cell line stably transfected with human VDR, was treated with paricalcitol or 1,25(OH)2D3 at doses ranging from 10^−10 to 10^−7 M for 24 hours, and its renin-inhibiting activity was assessed by Northern blot analyses; the cells were also transfected with renin gene promoter-luciferase reporter plasmid, and luciferase activity was determined in the presence and absence of paricalcitol or 1,25(OH)2D3.

In data set [2] the test system is PAI-1. The data set can be described thus: PAI-1 Western blot in primary culture of human coronary artery smooth muscle cells. The format is cell-based. To be noted: 24 hr. The protocol:
Human coronary artery smooth muscle cells were incubated with paricalcitol or calcitriol at the indicated concentration for 24 hr at 37° C. Samples were solubilized in SDS-PAGE sample buffer, and the protein content in each sample was determined by the Bio-Rad dye-binding protein assay. Samples were resolved by SDS-PAGE using a 4-12% gel, and proteins were electrophoretically transferred to PVDF membrane for Western blotting. The membrane was blotted for 1 h at 25° C. with 5% nonfat dry milk in PBS-T and then incubated with a mouse anti-PAI-1 monoclonal antibody in PBS-T overnight at 4° C. The membrane was washed with PBS-T and incubated with a horseradish peroxidase-labeled […] antibody for 1 h at 25° C. The membrane was then incubated with detection reagent (SuperSignal WestPico). The specific bands were visualized by exposing the paper to Kodak BioMax films.

Data set [3] can be described thus: Historical cohort of vascular access changes in HD patients with AV fistula. Format: in vivo, human. As to the method:
Methods: A historical cohort of 2112 adult patients new to HD, with an AV fistula as the initial primary vascular access were followed over a 35-month period (January 1999 thru November 2001) using a dialysis provider database. Patients were treated with Zemplar or no vitamin D therapy; patients receiving Zemplar therapy received at least 10 doses and remained on the same therapy. Descriptive summary statistics were used to summarize baseline characteristics and the total number of vascular access changes per year between treatment modalities. In addition, regression models were used to evaluate the association between Zemplar or no vitamin D therapy and the total number of vascular access changes per year.

The test system of a further data set is human CASMC. The data set can be described thus: 45Ca uptake into primary culture of human coronary artery smooth muscle cells. The protocol: Primary cultured human CASMC were grown to >80% confluence and used within five passages. Cells were treated with drugs for 5 days in the appropriate medium, and then changed back to base medium (N1: DMEM containing 1.8 mM Ca^+2 and 0.9 mM PO−4) containing 0.2 μCi/ml ^45Ca for 24 hr. Afterwards, cells were washed with PBS three times and radioactivity measured by liquid scintillation.

The next data set relates to CYP24A1. The data set can be described thus: CYP24A1 mRNA expression in human CASMC (control). Format: cell-based. To be noted: dose-dependent manner.
Data set [4] concerns PAI-1. The data set can be described thus: PAI-1 mRNA expression in human CASMC (control). The format is cell-based. To be noted: dose-dependent manner.
Data set [5] is described as follows: Active calcium transport in duodenum ex vivo. To be noted: uremic rats with SHPT. Set-up: species or system rat.
The next data set relates to renin. The data set is described as follows: In vivo renin inhibition in CD-1 male mice. On the set-up: species or system mouse. To be noted: 1.5 and 3.0 μg/kg i.p. 3 times a week for three weeks.

Each structure is given as a SMILES string. Entries after “also recorded” stand apart in the source; their conditions may differ.

With `C[C@H](/C=C/[C@H](C)C(C)(C)O)[C@H]1CC[C@H]2/C(=C/C=C3C[C@@H](O)C[C@H](O)C3)CCC[C@]12C` [paricalcitol], the “renin-inhibiting potency relative to calcitriol / 1,25(OH)2D3” value in data set [1] is “comparable to that of 1,25(OH)2D3; also recorded: a bit more potent than calcitriol”. Also, the “effect on renin mRNA expression” value in data set [1] (10^-10 to 10^-7 M, 24 hours) is reported as “suppresses; also recorded: dose-dependently inhibits”. Besides, the “potency in reducing the PAI level” value in the data set on PAI-1 [2] was “equally potent”. In addition, in data set [3] (HD patients with AV fistula, p=0.0034 vs no D), the “total number of vascular access changes (average)” value is reported as 0.6 changes per year. For the same compound, in data set [3] (negative binomial regression, p=0.038), the “more vascular access changes in No D group than in Zemplar patients” value is on record as 28%. For the same compound, the “effect on 45Ca uptake” value with human CASMC (100 nM, cells in N1 medium or different doses of P1 medium (20-60%)) is “did not show a significant effect”; with human CASMC (1-100 nM, cells in N1 or 60% N1/40% P1 media, 5 days), “no significant effects”. Moreover, the “CYP24A1 mRNA expression” value with CYP24A1 is recorded as “stimulated”. For the same compound, the “PAI-1 mRNA expression” value in the data set with PAI-1 [4] was “suppressed”. Also, the “active calcium transport in duodenum ex vivo” value in data set [5] is “no effect”. Moreover, the body weight entry in the data set with renin is given as “no effect”. In the data set on renin, the “levels of blood ionized calcium” value is reported as “only slightly increased”.
